The source of these data is patent US20040241871A1, “Method and apparatus for analyzing endocrine-distrupting substances in vital sample” (priority 2001, published 2004).

The data set is classed as in vivo, human. Particulars: for Concentration of Endocrine-Disrupting Substance in Vital Sample, Cord Serum / Concentration of Endocrine-Disrupting Substance in Vital Sample, Maternal Serum / Concentration of Endocrine-Disrupting Substance in Vital Sample, Mother's Milk / Concentration of Chlordane in Vital Sample, Cord Serum / Concentration of Chlordane in Vital Sample, Maternal Serum / Concentration of Chlordane in Vital Sample, Mother's Milk: in fat; for Concentration of Endocrine-Disrupting Substance in Vital Sample, Cord Serum / Concentration of Endocrine-Disrupting Substance in Vital Sample, Maternal Serum / Concentration of Endocrine-Disrupting Substance in Vital Sample, Mother's Milk: samples from 10 mothers; for PCB isomer value in the cord serum as compared with the maternal serum: cord serum vs maternal serum, confidence coefficient: 95% or more; for Concentration of Chlordane in Vital Sample, Cord Serum / Concentration of Chlordane in Vital Sample, Maternal Serum / Concentration of Chlordane in Vital Sample, Mother's Milk: individual chlordanes. An excerpt:
Maternal serum, cord serum and mother's milk samples collected from 10 mothers were used (30 samples in total). These samples were used for the analysis test after obtaining the consent from the subjects.
The GPC column used was Shodex (registered trademark) EV-200AC Column (polystyrene-base hard gel column having an inner diameter of 2 mm and a length of 150 mm) manufactured by Showa Denko K. K.
A programmed temperature vaporizer (PTV) was equipped and in the GC part, an inactivated silica tube (2 m (length)×0.53 mm (inner diameter)) and capillary columns DB-5 (0.5 m (length)×0.25 mm (inner diameter), film thickness: 0.25 μm; and 60 m (length)×0.25 mm (inner diameter), film thickness: 0.1 μm), both manufactured by J & W Scientific, were used. After the injection of solution, the temperature was kept at 83° C. (for 5 minutes) and then elevated to 172° C. at 1° C./min and further to 270° C. at 50° C./min. The measurement was performed at 280° C.
In the main test below, the internal standard substances used were 3 kinds of PCBs marked by ^13C (3,3′,4,4′-tetrachlorobiphenyl, 3,3′,4,4′,5-pentachlorobiphenyl, 3,3′,4,4′,5,5′-hexachlorobiphenyl), hexachlorobenzene (HCB) and p,p′-dichlorodiphenyl dichloroethylene (DDE).
The cord serum (8 ml), the maternal serum (4 ml) and the mother's milk (2 ml) each was subjected to fat extraction according to the method by Patterson et al. More specifically, the sample was charged into a separating funnel, the internal standard substance was added, and then saturated ammonium sulfate, ethanol and hexane were added at a ratio of about 1:1:3. After shaking to cause separation into two layers, the aqueous layer was transferred to a different separating funnel and hexane was added thereto. After shaking to cause separation into two layers, the hexane layer was combined with the organic layer obtained at the first separation, washed with water, dried over anhydrous sodium sulfate, filtered, concentrated and dried. Thereafter, the total weight of fat was measured. The average fat amount was 0.197% in the cord serum, 0.895% in the maternal serum and 3.04% in the mother's milk.
Acetone/cyclohexane (3:7) (v/v) was passed through the GPC column at a flow rate of 0.1 ml/min and 20 μl of a solution obtained by dissolving the fat extracted above in 50 to 100 μl of a solvent having the same composition was injected into the GPC.
Based on the results in the preliminary measurement, the elution composition of 0 to 3.2 minutes after the injection of sample was discarded and the fraction of 3.2 to 5.2 minutes was collected in a sample loop (storage amount: 200 μl) and introduced into GC/MS at 5.2 to 7.5 minutes.
The results are shown in Table 1 together with analysis results of other endocrine-disrupting substances.

Turning to `ClC1=C(Cl)C2(Cl)C3C(Cl)C=CC3C1(Cl)C2(Cl)Cl` (stereo not drawn) [Heptachlor], the “Concentration of Endocrine-Disrupting Substance in Vital Sample, Cord Serum” value is on record as 1.20 ppb; the “Concentration of Endocrine-Disrupting Substance in Vital Sample, Maternal Serum” value is recorded as 1.17 ppb; the “Concentration of Endocrine-Disrupting Substance in Vital Sample, Mother's Milk” value is given as 0.30 ppb.
For `Clc1ccc(-c2cc(Cl)c(Cl)c(Cl)c2Cl)c(Cl)c1Cl` [#170], the “PCB isomer value in the cord serum as compared with the maternal serum” value is listed as “significantly low”.
Take `Clc1cc(Cl)c(-c2cc(Cl)c(Cl)cc2Cl)cc1Cl` [#153]: the “PCB isomer value in the cord serum as compared with the maternal serum” value was “significantly low”.
Take `ClC1=C(Cl)[C@]2(Cl)[C@H]3[C@H]([C@H](Cl)[C@]4(Cl)O[C@H]34)[C@@]1(Cl)C2(Cl)Cl` [Oxychlordane]: the “Concentration of Chlordane in Vital Sample, Cord Serum” value came out at 6.66 ppb; the “Concentration of Chlordane in Vital Sample, Maternal Serum” value was determined as 6.30 ppb; the “Concentration of Chlordane in Vital Sample, Mother's Milk” value is 6.49 ppb.
`Clc1c(Cl)c(Cl)c(Cl)c(Cl)c1Cl` [HCB, hexachlorobenzene]: the “Concentration of Endocrine-Disrupting Substance in Vital Sample, Cord Serum” value is listed as 14.14 ppb; the “Concentration of Endocrine-Disrupting Substance in Vital Sample, Maternal Serum” value is 15.71 ppb; the “Concentration of Endocrine-Disrupting Substance in Vital Sample, Mother's Milk” value is 14.08 ppb.
For `ClC1C(Cl)C(Cl)C(Cl)C(Cl)C1Cl` (stereo not drawn) [HCH, hexachlorocyclohexane] the same measures were 189.54 ppb, 271.49 ppb and 315.58 ppb.
On to `Clc1ccc(-c2cc(Cl)c(Cl)cc2Cl)cc1Cl` [#118], for which the “PCB isomer value in the cord serum as compared with the maternal serum” value is listed as “significantly low”.
In the case of `Clc1cc(Cl)c(-c2cc(Cl)c(Cl)c(Cl)c2)c(Cl)c1` [#168], the “PCB isomer value in the cord serum as compared with the maternal serum” value is listed as “significantly low”.
`ClC1=C(Cl)[C@]2(Cl)[C@H]3[C@H]([C@H](Cl)C(Cl)[C@@H]3Cl)[C@@]1(Cl)C2(Cl)Cl` (stereo partly drawn) [trans-Nonachlor]: the “Concentration of Chlordane in Vital Sample, Cord Serum” value is recorded as 16.35 ppb; the “Concentration of Chlordane in Vital Sample, Maternal Serum” value worked out at 17.08 ppb; the “Concentration of Chlordane in Vital Sample, Mother's Milk” value is recorded as 19.58 ppb.
Consider `ClC1=C(Cl)C2(Cl)C3C4OC4C(Cl)C3C1(Cl)C2(Cl)Cl` (stereo not drawn) [HCE, heptachloroepoxide], for which the “Concentration of Endocrine-Disrupting Substance in Vital Sample, Cord Serum” value is on record as 1.55 ppb; the “Concentration of Endocrine-Disrupting Substance in Vital Sample, Maternal Serum” value is reported as 2.61 ppb; the “Concentration of Endocrine-Disrupting Substance in Vital Sample, Mother's Milk” value was found to be 3.06 ppb.
As to `ClC1=C(Cl)[C@]2(Cl)[C@H]3C[C@H](Cl)[C@H](Cl)[C@H]3[C@@]1(Cl)C2(Cl)Cl` (relative stereo) [cis-Chlordane], the “Concentration of Chlordane in Vital Sample, Maternal Serum” value is on record as 0.86 ppb and the “Concentration of Chlordane in Vital Sample, Mother's Milk” value was 0.93 ppb.
As for `ClC1=C(Cl)[C@]2(Cl)[C@H]3[C@H]([C@H](Cl)C(Cl)[C@@H]3Cl)[C@@]1(Cl)C2(Cl)Cl` (stereo partly drawn) [cis-Nonachlor], the “Concentration of Chlordane in Vital Sample, Cord Serum” value is 0.91 ppb; the “Concentration of Chlordane in Vital Sample, Maternal Serum” value was found to be 1.54 ppb; the “Concentration of Chlordane in Vital Sample, Mother's Milk” value came to 2.25 ppb.
For `ClC1=C(Cl)[C@]2(Cl)C3C(Cl)C(Cl)CC3[C@@]1(Cl)C2(Cl)Cl` (stereo partly drawn) [γ-Chlordane], the “Concentration of Chlordane in Vital Sample, Cord Serum” value was 1.64 ppb; the “Concentration of Chlordane in Vital Sample, Maternal Serum” value is given as 1.43 ppb; the “Concentration of Chlordane in Vital Sample, Mother's Milk” value worked out at 1.66 ppb.
`ClC(Cl)=C(c1ccc(Cl)cc1)c1ccc(Cl)cc1` [DDE, p,p′-dichlorodiphenyl dichloroethylene]: the “Concentration of Endocrine-Disrupting Substance in Vital Sample, Cord Serum” value is on record as 278.63 ppb; the “Concentration of Endocrine-Disrupting Substance in Vital Sample, Maternal Serum” value was 314.48 ppb; the “Concentration of Endocrine-Disrupting Substance in Vital Sample, Mother's Milk” value was 343.62 ppb.
